Data published in US20130261137A1, “Methods, Compounds and Compositions Relating to Activating a Latent Virus” (ULC BUSINESS PLC, priority 2010, published 2013).

What was measured:
[1] = test system: HIV-1 LTR in J-Lat A72 cells; experiment: HIV-1 LTR assay, GFP expression in J-LAT A72 cells; conditions: for reduction of HIV LTR induction by 15026 compared to DMSO control: 15026 0.8 μM; for HIV-1 LTR induction by other antimicrotubule agents: taxol 0.8 μM, vinblastine 0.8 μM, ERK dependent (U0126)
JSC-1 cells = experiment: Cell viability assay (CellTiter-Glo); conditions: for GCV cytotoxicity after pre-treatment with compound: pre-treatment 24 h (UCLB-15026 800 nM, taxol 80 nM), then GCV 20 or 100 μM, 48 and 72 h
[2] = test system: HIV-1 LTR of subtype A/G in LGIT cells; experiment: HIV-1 LTR induction, GFP in LGIT cells, LTR subtype A/G; conditions: 24 hours; ERK-dependent (with or without U0126 10 μM)
cells (cell cycle) = conditions: reported for the compound; cited from earlier work
HIV-1 LTR in ACH2 cells = experiment: HIV-1 LTR induction assay, TAR RNA qPCR in ACH2 cells; conditions: 15026 4 μM
[3] = test system: HIV-1 LTR in PBMCs from HIV-1 positive individuals; experiment: Ex vivo HIV-1 LTR induction assay, TAR RNA qPCR in PBMCs from HIV-1 positive individuals; type: cell-based; conditions: 100 μM, 24 h
tubulin = conditions: reported, reference 21; read-out: IC50 inhibiting tubulin polymerization; cited from earlier work
[4] = test system: KSHV RTA in BCBL-1 PLuc cells; type: cell-based
[5] = test system: HIV-1 LTR of subtype A in LGIT cells; experiment: HIV-1 LTR induction, GFP in LGIT cells, LTR subtype A; conditions: 24 hours; ERK-dependent (with or without U0126 10 μM)
HIV-1 LTR in U1 cells = experiment: HIV-1 LTR induction assay, TAR RNA qPCR in U1 cells; conditions: 15026 4 μM
[6] = test system: KSHV RTA in JSC-1 PYFP cells
[7] = test system: microtubule network in JSC-1 cells; experiment: Confocal immunofluorescence microscopy of microtubule network; type: cell-based; conditions: 100 μM, 16 h
Procedure: JSC-1 cells were grown on coverslips coated with […] (Sigma) with DMSO or UCLB-15026 (100 μM) for 16 h. JSC-1 cells were then fixed in 3% paraformaldehyde, rinsed and permeabilized in 0.02% Triton-PBS. This was followed by blocking in 2% FCS-PBS, staining with anti-tubulin antibody (Sigma), washed, and then incubated with Alexa-488 conjugated goat anti-mouse secondary antibody (Molecular Probes) before being mounted onto slides using VectaShield mounting medium containing DAPI. Images were taken using confocal microscope (Leica).

[8] = test system: KSHV ORF 29 in JSC-1 cells; experiment: Semi-quantitative RT-PCR of KSHV late gene ORF 29 in JSC-1; type: cell-based; conditions: different concentrations
From the text: Briefly, RNA was extracted from 2×10^6 cells with TRIzol (Invitrogen) and treated with DNase (Ambion), followed by phenol extraction and ethanol precipitation. Serial dilution (3×10-fold) of oligonucleotide dT (Qiagen)-primed cDNA was used for PCR amplification (Promega) of KSHV ORF 29 using forward ([…]; SEQ ID NO. 1) and reverse ([…]; SEQ ID NO. 2) primers. All samples were normalized by PCR amplification of beta-2 microglobulin (β2M) using serially diluted cDNA with forward ([…]; SEQ ID NO. 3) and reverse ([…]; SEQ ID NO. 4) primers. The PCR cycle consisting of 95° C. for 30 seconds, 50° C. for 30 seconds, and 72° C. for 30 seconds was repeated 36 times for ORF 29, and 28 times for β2M. Both set of primers amplify across splice junction and the sizes (in bp) of the expected products are: ORF 29 (cDNA—399, DNA—3650) and β2M (cDNA—301, DNA—2178).

[9] = test system: HIV-1 LTR of subtype C in LGIT cells; experiment: HIV-1 LTR induction, GFP in LGIT cells, LTR subtype C; conditions: 24 hours; ERK-dependent (with or without U0126 10 μM)
[10] = test system: KSHV RTA in JSC-1 PLuc cells; type: cell-based
KSHV RTA in JSC-1 cells = type: cell-based
JSC-1 PYFP cells = conditions: U0126 10 μM, 40 h
[11] = test system: KSHV (rKSHV.219) in JSC-1 cells; type: cell-based

Structure (SMILES): COc1ccc(-c2csc3c2-n2cccc2C3=O)cc1 [UCLB-15026]
- HIV-1 LTR activity (GFP expression) ([1]; 15026 4 μM, 24 hours): induced LTR activity
- LTR-mediated GFP expression ([1]; UCLB-15026 at different concentrations, 24 or 40 h): substantially induced
- GCV cytotoxicity after pre-treatment with compound (JSC-1 cells): enhanced GCV cytotoxicity
- GFP expression driven by LTR of subtype A/G [2]: induced GFP expression
- cell cycle effect (cells (cell cycle)): accumulated in the G2/M phases of cell cycle
- HIV-1 LTR activity (TAR RNA expression) (HIV-1 LTR in ACH2 cells): induced LTR activity
- TAR RNA copies compared with DMSO, three PBMC cultures [3]: higher TAR RNA copies in two out of three PBMC cultures
- TAR RNA copies compared with DMSO, volunteer 1 ([3]; PBMC culture): about 5 fold
- TAR RNA copies compared with DMSO, volunteer 2 ([3]; PBMC culture): about 200 fold
- IC50 (tubulin): 2.9 µM
- RTA induction (% RLU normalized to TPA control/10^5 cells) [4]: induced RTA
- GFP expression driven by LTR of subtype A [5]: induced GFP expression
- HIV-1 LTR activity (TAR RNA expression) (HIV-1 LTR in U1 cells): induced LTR activity
- KSHV reactivation (% YFP-positive cells normalized to TPA control) [6]: reactivated KSHV to similar levels
- concentration range of half their maximal activities (KSHV reactivation) [6]: nanomolar range
- effect on microtubule network (anti-tubulin immunofluorescence) [7]: disrupts microtubule network
- expression of KSHV late gene ORF 29 [8]: dose-dependent expression
- GFP expression driven by LTR of subtype C [9]: induced GFP expression
- RTA expression (% RLU normalized to TPA control/10^5 cells) [10]: activate RTA expression

Structure (SMILES): Nc1nc(O)c2ncn(COC(CO)CO)c2n1 [GCV, ganciclovir]
- effect of GCV alone on JSC-1 proliferation (JSC-1 cells; DMSO 24 h, then GCV 20 μM or 100 μM, 24, 48, 72 h): no detrimental effect

Structure (SMILES): Nc1ncnc2c1ncn2[C@@H]1O[C@@H]2COP(O)(=S)O[C@H]2[C@H]1O (some centres unmarked) [Rp-cAMP]
- reduction of HIV LTR induction by 15026 compared to DMSO control [1]: about 40%

Structure (SMILES): CC[C@]1(O)C[C@@H]2CN(CCc3c([nH]c4ccccc34)[C@@](C(=O)OC)(c3cc4c(cc3OC)N(C)[C@H]3[C@@](O)(C(=O)OC)[C@H](OC(C)=O)[C@]5(CC)C=CCN6CC[C@]43[C@@H]65)C2)C1 [vinblastine]
- HIV-1 LTR induction by other antimicrotubule agents ([1]; genistein 100 μM): can induce
- KSHV RTA induction by other antimicrotubule agents [6]: can induce

Structure (SMILES): CCCC(=O)[O-].[Na+] [SB, sodium butyrate]
- KSHV RTA induction and induction kinetics (western blot) (KSHV RTA in JSC-1 cells): delayed-kinetics

Structure (SMILES): O=c1c(-c2ccc(O)cc2)coc2cc(O)cc(O)c12 [genistein]
- HIV-1 LTR activity (% GFP-positive cells normalized to TPA) ([1]; genistein 100 μM, 24 h post-treatment): induction of HIV-1 LTR activity
- HIV-1 LTR induction by other antimicrotubule agents ([1]; genistein 100 μM): can induce
- KSHV RTA induction by other antimicrotubule agents [6]: can induce
- KSHV lytic cycle induction (% YFP-positive cells normalized to TPA) [6]: can reactivate KSHV

Structure (SMILES): CC(=O)O[C@H]1C(=O)[C@@]2(C)[C@H]([C@H](OC(=O)c3ccccc3)[C@]3(O)C[C@H](OC(=O)[C@H](O)[C@@H](NC(=O)c4ccccc4)c4ccccc4)C(C)=C1C3(C)C)[C@]1(OC(C)=O)CO[C@@H]1C[C@@H]2O [taxol, paclitaxel]
- HIV-1 LTR induction by other antimicrotubule agents ([1]; genistein 100 μM): induce transcriptional activities
- GCV cytotoxicity after pre-treatment with compound (JSC-1 cells): small but statistically significant increase in cell cytotoxicity
- RTA induction (% RLU normalized to TPA control/10^5 cells) [4]: induced RTA
- KSHV reactivation (% YFP-positive cells normalized to TPA control) [6]: reactivated KSHV to similar levels
- concentration range of half their maximal activities (KSHV reactivation) [6]: nanomolar range
- expression of KSHV late gene ORF 29 [8]: dose-dependent expression
- RTA expression (% RLU normalized to TPA control/10^5 cells) [10]: activate RTA expression

Structure (SMILES): O=S(=O)(NCCNC/C=C/c1ccc(Br)cc1)c1cccc2cnccc12 [H89]
- reduction of HIV LTR induction by 15026 compared to DMSO control [1]: 80%
- reduction of KSHV RTA induction by 15026 compared to DMSO control ([6]; 15026 0.8 μM): 35%

Structure (SMILES): N#CC(=C(/N)Sc1ccccc1N)/C(C#N)=C(\N)Sc1ccccc1N [U0126]
- effect of ERK inhibitor on LTR induction by 15026 (GFP) ([1]; U0126 10 μM, 15026 4 μM): inhibited 15026 activity
- effect of ERK inhibitor on LTR induction by 15026 (TAR RNA) (HIV-1 LTR in ACH2 cells; U0126 10 μM): inhibited 15026 activity
- effect of ERK inhibitor on LTR induction by 15026 (TAR RNA) (HIV-1 LTR in U1 cells; U0126 10 μM): inhibited 15026 activity
- cell viability (trypan blue exclusion) (JSC-1 PYFP cells): no significant effect on cell viability

Structure (SMILES): CCCCCCCCCCCCCC(=O)O[C@@H]1[C@@H](C)[C@@]2(O)[C@@H](C=C(CO)C[C@]3(O)C(=O)C(C)=C[C@@H]23)[C@@H]2C(C)(C)[C@]12OC(C)=O [TPA, 12-O-tetradecanoyl-phorbol-13-acetate]
- KSHV RTA induction and induction kinetics (western blot) (KSHV RTA in JSC-1 cells): immediate-kinetics
- exposure required for KSHV induction (KSHV RTA in JSC-1 cells): < 1 h
- % RFP-positive cells [11]: −1.8%
